This note sets out measurements from patent publication US20090163578A1, “NOVEL MODIFICATION OF IMMUNOMODULATORY PROTEIN” (UNIVERSITY OF MEDICINE AND DENTISTRY OF NEW JERSEY, priority 2004, published 2009).

The test addresses T1, TRPM7/ChaK1 kinase domain (purified recombinant ChaK1-cat) (Mus musculus, UniProt Q923J1).
T1 construct: Expression and purification of recombinant ChaK1 kinase domain was performed as described; made in house; host or cells: bacteria
T1 sequence (Q923J1 1592-1822 limits assumed): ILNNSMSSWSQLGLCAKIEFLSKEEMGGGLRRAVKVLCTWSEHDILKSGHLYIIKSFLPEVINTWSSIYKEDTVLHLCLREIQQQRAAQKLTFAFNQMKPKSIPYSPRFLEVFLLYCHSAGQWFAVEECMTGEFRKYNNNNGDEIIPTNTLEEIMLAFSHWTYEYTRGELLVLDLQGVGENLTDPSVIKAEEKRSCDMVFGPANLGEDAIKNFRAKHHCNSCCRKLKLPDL
The test is described as follows: ChaK1-cat kinase activity: phosphorylation of myelin basic protein with [γ-33P]ATP, SDS-PAGE and autoradiography. It is filed as biochemical. The protocol:
The reaction was performed using purified recombinant ChaK1-cat and myelin basic protein. The samples were analyzed by SDS-PAGE and autoradiography; and
The bands corresponding to phosphorylated myelin basic protein (on the autoradiogram shown in B) were quantified using the Kodak 1D imaging program.
Protein samples were incubated in phosphorylation mixture consisting of 50 mM HEPES-KOH (pH 7.4), 10 mM MgCl2, 4 mM MnCl2, 0.5 mM CaCl2 (unless stated otherwise), 100 μM ATP, and 2 μCi of [γ-^33P]ATP (specific activity of 3000 Ci/mmol) with 0.1 μg of purified recombinant ChaK1. In assays involving annexin 0.5 μg of annexin was used. The reactions were run at 30° C. for 5 min and were terminated by incubation in an ice/water bath and addition of Laemmli sample buffer. Samples were boiled for 5 min and analyzed by SDS-PAGE and autoradiography.
We analyzed the sensitivity of ChaK1 to some known inhibitors of conventional protein kinases.

Molecules are shown by their SMILES.

With `CN[C@@H]1C[C@H]2O[C@@](C)([C@@H]1OC)n1c3ccccc3c3c4c(c5c6ccccc6n2c5c31)C(=O)NC4` [staurosporine], the “effect on the kinase activity of ChaK1” value (concentrations up to 0.1 mM (FIG. 6B)) is given as “does not have any effect”. Moreover, the “inhibitory effect on ChaK1” value (staurosporine even at the concentration of 100 μM (FIG. 6B)) is on record as “did not produce any inhibitory effect”.

`CC(=O)c1c(O)c(C)c(O)c(Cc2c(O)c3c(c(C(=O)/C=C/c4ccccc4)c2O)OC(C)(C)C=C3)c1O` [rottlerin]: the IC50 is ~35 µM.

By IC50 is commonly meant the point on the concentration scale where inhibition reaches its midpoint.
